This is an account of results in patent US12428406B2 (PMV Pharmaceuticals, Inc., priority 2019, dated 2025).

T1 sequence (P04637 94-312, change not shown): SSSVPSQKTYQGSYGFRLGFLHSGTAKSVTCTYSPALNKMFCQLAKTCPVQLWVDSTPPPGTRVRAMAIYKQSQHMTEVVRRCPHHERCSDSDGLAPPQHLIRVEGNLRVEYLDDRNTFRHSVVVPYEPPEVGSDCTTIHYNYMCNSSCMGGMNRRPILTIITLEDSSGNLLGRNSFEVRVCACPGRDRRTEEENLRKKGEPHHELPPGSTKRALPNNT

The test addresses T1, p53 Y220C (Homo sapiens, UniProt P04637, Y220C).
T1 construct: The recombinant protein was a truncation mutant containing only amino acids 94-312 of p53; made in house; host or cells: E. coli
Put plainly: In vitro DNA binding activity assay (HTRF / TR-FRET): stabilization of p53 Y220C and increase of its DNA binding activity. It is filed as biochemical. The note with it: recombinant His-tagged p53 Y220C DNA binding domain (aa 94-312), biotin-labeled consensus DNA, incubated at 27° C. or 29° C. for 60 min. In outline: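 Compounds from 4.5 mM DMSO stocks, 3-fold serial dilutions; room-temperature incubations of 15 and 20 min. SC150 = concentration raising DNA binding by 50% over no-compound control.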
On the technique in general: TR-FRET usually uses a lanthanide donor and a delayed reading to cut background.
In the case of `COc1cc(C(=O)O)ccc1NCC#Cc1cc2c(N[C@@H]3CCN(C(C)(C)C)C[C@@H]3F)cccc2n1CC(F)(F)F` [Compound 1070A, 4-{[3-(4-{[(3S,4R)-1-tert-butyl-3-fluoropiperidin-4-yl]amino}-1-(2,2,2-trifluoroethyl)-1H-indol-2-yl)prop-2-yn-1-yl]amino}-3-methoxybenzoic acid], the “SC150 (concentration of the compound required to increase the DNA binding activity by 50%)” value is given as “+ (+ = 0 μM ≤ SC150 < 0.05 μM)”. In the case of `COc1cc(S(C)(=O)=O)ccc1NCC#Cc1cc2c(N[C@H]3CC[C@H](N4CCC5(CCOCC5)CC4)CC3)cccc2n1CC(F)(F)F` [Compound 414A, 2-{3-[(4-methane-sulfonyl-2-methoxy-phenyl)amino]prop-1-yn-1-yl}-N-[(1R,4R)-4-{3-oxa-9-azaspiro[5.5]undecan-9-yl}cyclohexyl]-1-(2,2,2-trifluoroethyl)-1H-indol-4-amine] it was “+ (+ = 0 μM ≤ SC150 < 0.05 μM)”; in that of `CS(=O)(=O)c1ccc(NCC#Cc2cc3c(NC4CCNCC4)cccc3n2CC(F)(F)F)c(OCC#N)c1` [Compound 461A, 2-{5-methanesulfonyl-2-[(3-{4-[(piperidin-4-yl)amino]-1-(2,2,2-trifluoroethyl)-1H-indol-2-yl}prop-2-yn-1-yl)amino]phenoxy}acetonitrile], “+ (+ = 0 μM ≤ SC150 < 0.05 μM)”. Take `CNC(=O)c1ccc(NCC#Cc2cc3c(N[C@H]4CC[C@H](N5CCOCC5)CC4)cccc3n2CC#N)c(OC)c1` [Compound 177A, 4-({3-[1-(cyanomethyl)-4-{[(1R,4R)-4-(morpholin-4-yl)cyclohexyl]amino}-1H-indol-2-yl]prop-2-yn-1-yl}amino)-3-methoxy-N-methyl-benzamide]: the “SC150 (concentration of the compound required to increase the DNA binding activity by 50%)” value was “+ (+ = 0 μM ≤ SC150 < 0.05 μM)”.

With `COCCN(C)[C@H]1CC[C@@H](Nc2cccc3c2cc(C#CCNc2ccc(S(C)(=O)=O)cc2OCC#N)n3CC(F)(F)F)CC1` [Compound 150A], the “SC150 (concentration of the compound required to increase the DNA binding activity by 50%)” value is “+ (+ = 0 μM ≤ SC150 < 0.05 μM)”. On to `CNC(=O)c1ccc(NCC#Cc2cc3c(N[C@H]4CC[C@H](NC)CC4)cccc3n2CC(F)(F)F)c(OC)c1` [Compound 23A, 3-methoxy-N-methyl-4-{[3-(4-{[(1R,4R)-4-(methylamino)cyclo-hexyl]amino}-1-(2,2,2-trifluoroethyl)-1H-indol-2-yl)prop-2-yn-1-yl]amino}benzamide], for which the “SC150 (concentration of the compound required to increase the DNA binding activity by 50%)” value is reported as “+ (+ = 0 μM ≤ SC150 < 0.05 μM)”. The value for `CCOc1cc(S(C)(=O)=O)ccc1NCC#Cc1cc2c(N[C@@H]3CCNC[C@@H]3F)cccc2n1CC(F)(F)F` [Compound 941A, 2-{3-[(2-ethoxy-4-methanesulfonylphenyl)amino]prop-1-yn-1-yl}-N-[(3S,4R)-3-fluoropiperidin-4-yl]-1-(2,2,2-trifluoroethyl)-1H-indol-4-amine] was “+ (+ = 0 μM ≤ SC150 < 0.05 μM)”; that for `CC(C)C(=O)N(CC#Cc1cc2c(N[C@H]3CC[C@H](N4CC5(COC5)C4)CC3)cccc2n1CC(F)(F)F)c1ccc(S(C)(=O)=O)cc1O` [Compound 218A, N-(2-hydroxy-4-methanesulfonylphenyl)-2-methyl-N-[3-(4-{[(1R,4R)-4-{2-oxa-6-azaspiro[3.3]heptan-6-yl}cyclohexyl]amino}-1-(2,2,2-trifluoroethyl)-1H-indol-2-yl)prop-2-yn-1-yl]propanamide] was “++++ (++++ = 0.2 μM ≤ SC150 < 1 μM)”; that for `COc1cc(C(=O)N(C)C(C)C)ccc1NCC#Cc1cc2c(N[C@@H]3CCN(C)C[C@@H]3F)cccc2n1CC(F)(F)F` [Compound 944A, 4-{[3-(4-{[(3S,4R)-3-fluoro-1-methylpiperidin-4-yl]amino}-1-(2,2,2-trifluoroethyl)-1H-indol-2-yl)prop-2-yn-1-yl]amino}-3-methoxy-N-methyl-N-(propan-2-yl)benzamide] was “+ (+ = 0 μM ≤ SC150 < 0.05 μM)”.

Consider `COc1cc(C(N)=O)ccc1NCC#Cc1cc2c(N[C@H]3CCNC[C@H]3F)cccc2n1CC(F)(F)F` [Compound 868A, 4-{[3-(4-{[(3R,4S)-3-fluoropiperidin-4-yl]amino}-1-(2,2,2-trifluoroethyl)-1H-indol-2-yl)prop-2-yn-1-yl]amino}-3-methoxybenzamide], for which the “SC150 (concentration of the compound required to increase the DNA binding activity by 50%)” value is reported as “+ (+ = 0 μM ≤ SC150 < 0.05 μM)”. `CN(C)[C@H]1CC[C@@H](Nc2cccc3c2cc(C#CCNc2ccc(S(C)(=O)=O)cc2OCC(F)(F)F)n3CC(F)(F)F)CC1` [Compound 93A, (1S,4S)-N^4-[2-(3-{[4-methanesulfonyl-2-(2,2,2-trifluoroethoxy)phenyl]amino}prop-1-yn-1-yl)-1-(2,2,2-trifluoro-ethyl)-1H-indol-4-yl]-N^1,N^1-dimethylcyclo-hexane-1,4-diamine]: the “SC150 (concentration of the compound required to increase the DNA binding activity by 50%)” value is on record as “+ (+ = 0 μM ≤ SC150 < 0.05 μM)”. `COc1cc(S(=O)(=O)N(CCO)CCO)ccc1NCC#Cc1cc2c(NC3CCN(CC(C)O)CC3)cccc2n1CC(F)(F)F` (stereo not drawn) [Compound 595A, N,N-bis(2-hydroxyethyl)-4-{[3-(4-{[1-(2-hydroxypropyl)piperidin-4-yl]amino}-1-(2,2,2-trifluoroethyl)-1H-indol-2-yl)prop-2-yn-1-yl]amino}-3-methoxybenzene-1-sulfonamide]: the “SC150 (concentration of the compound required to increase the DNA binding activity by 50%)” value is on record as “+ (+ = 0 μM ≤ SC150 < 0.05 μM)”. In the case of `COc1cc(S(C)(=O)=O)ccc1NCC#Cc1cc2c(NC3CCCN(C)CC3)cccc2n1CC(F)(F)F` (stereo not drawn) [Compound 988A, 2-{3-[(4-methanesulfonyl-2-methoxyphenyl)amino]prop-1-yn-1-yl}-N-(1-methylazepan-4-yl)-1-(2,2,2-trifluoroethyl)-1H-indol-4-amine], the “SC150 (concentration of the compound required to increase the DNA binding activity by 50%)” value was “+ (+ = 0 μM ≤ SC150 < 0.05 μM)”. The value for `Cc1cc(S(C)(=O)=O)ccc1NCC#Cc1cc2c(N[C@H]3CC[C@H](N4CC5(COC5)C4)CC3)cccc2n1CC(F)(F)F` [Compound 283A, 2-{3-[(4-methanesulfonyl-2-methylphenyl)amino]prop-1-yn-1-yl}-N-[(1R,4R)-4-{2-oxa-6-azaspiro[3.3]heptan-6-yl}cyclohexyl]-1-(2,2,2-trifluoroethyl)-1H-indol-4-amine] was “+ (+ = 0 μM ≤ SC150 < 0.05 μM)”; that for `COc1cc(S(C)(=O)=O)ccc1NCC#Cc1cc2c(N[C@H]3CC[C@@H](N4CCC5(CC4)COC5)CC3)cccc2n1CC(F)(F)F` [Compound 374A, 2-{3-[(4-methane-sulfonyl-2-methoxy-phenyl)amino]prop-1-yn-1-yl}-N-[(1S,4S)-4-{2-oxa-7-azaspiro[3.5]nonan-7-yl}cyclohexyl]-1-(2,2,2-trifluoroethyl)-1H-indol-4-amine] was “+ (+ = 0 μM ≤ SC150 < 0.05 μM)”; that for `COC(=O)c1ccc(NCC#Cc2cc3c(N[C@@H]4CCN(CC(=O)N(C)C)C[C@@H]4F)cccc3n2CC(F)(F)F)c(OC)c1` [Compound 913A, methyl 4-{[3-(4-{[(3S,4R)-1-[(dimethylcarbamoyl)methyl]-3-fluoropiperidin-4-yl]amino}-1-(2,2,2-trifluoroethyl)-1H-indol-2-yl)prop-2-yn-1-yl]amino}-3-methoxybenzoate] was “+ (+ = 0 μM ≤ SC150 < 0.05 μM)”. In the case of `CCC(=O)O[C@H](COC)CN1CCC(Nc2cccc3c2cc(C#CCNc2ccc(S(C)(=O)=O)cc2OC)n3CC(F)(F)F)CC1` [Compound 715A, (2S)-1-{4-[(2-{3-[(4-methanesulfonyl-2-methoxyphenyl)amino]prop-1-yn-1-yl}-1-(2,2,2-trifluoroethyl)-1H-indol-4-yl)amino]piperidin-1-yl}-3-methoxypropan-2-yl propanoate] it was “+ (+ = 0 μM ≤ SC150 < 0.05 μM)”; in that of `CNC(=O)c1ccc(NCC#Cc2cc3c(N[C@H]4CC[C@@H](N(C)C)CC4)cccc3n2CC(F)(F)F)c(OCCOC)c1` [Compound 99A, 3-(2-methoxyethoxy)-N-methyl-4-{[3-(4-{[(1S,4S)-4-(dimethyl-amino)cyclohexyl]amino}-1-(2,2,2-trifluoroethyl)-1H-indol-2-yl)prop-2-yn-1-yl]amino}benzamide], “+ (+ = 0 μM ≤ SC150 < 0.05 μM)”.

On to `COc1cc(C#N)ccc1NCC#Cc1cc2c(NC3CCC(N4CC5(COC5)C4)CC3)cccc2n1CC(F)(F)F` [Compound 250A, 3-methoxy-4-{[3-(4-{[(1S,4S)-4-{2-oxa-6-azaspiro[3.3]heptan-6-yl}cyclohexyl]amino}-1-(2,2,2-trifluoroethyl)-1H-indol-2-yl)prop-2-yn-1-yl]amino}benzonitrile], for which the “SC150 (concentration of the compound required to increase the DNA binding activity by 50%)” value was “+ (+ = 0 μM ≤ SC150 < 0.05 μM)”. With `COc1cc(-c2cccnc2)ccc1NCC#Cc1cc2c(NC3CCN(C)CC3)cccc2n1CC(F)(F)F` [Compound 503A, 2-(3-{[2-methoxy-4-(pyridin-3-yl)phenyl]amino}prop-1-yn-1-yl)-N-(1-methylpiperidin-4-yl)-1-(2,2,2-trifluoroethyl)-1H-indol-4-amine], the “SC150 (concentration of the compound required to increase the DNA binding activity by 50%)” value was “++ (++ = 0.05 μM ≤ SC150 < 0.1 μM)”. With `COc1cc(S(C)(=O)=O)ccc1NCC#Cc1cc2c(N[C@H]3CC[C@H](N4CC[S+]([O-])CC4)CC3)cccc2n1CC(F)(F)F` [Compound 364A, 4-[(1R,4R)-4-[(2-{3-[(4-methanesulfonyl-2-methoxyphenyl)amino]prop-1-yn-1-yl}-1-(2,2,2-trifluoroethyl)-1H-indol-4-yl)amino]cyclohexyl]-1λ^4-thiomorpholin-1-one], the “SC150 (concentration of the compound required to increase the DNA binding activity by 50%)” value is given as “+ (+ = 0 μM ≤ SC150 < 0.05 μM)”.
